# US20240325398A1, “COMBINATION THERAPIES” (Infinity Pharmaceuticals, Inc., priority 2014, published 2024)
# Legend:
# Assay in all cases: Combination study, ATPLite 72 h, dose matrix (Synergy Score, CI50)
# KARPAS-422 = system: KARPAS-422
# SU-DHL-10-epst = system: SU-DHL-10-epst
# WSU-NHL = system: WSU-NHL
# Method: (§1) Cells are thawed from a liquid nitrogen preserved state. Once cells have been expanded and divide at their expected doubling times, screening begins. Cells are seeded in growth media in either black 1536-well or 384-well tissue culture treated plates. Cells are then equilibrated in assay plates via centrifugation and placed in incubators attached to the Dosing Modules at 37° C. for 24 hours before treatment. […] These Tzero (To) plates are read using ultra-sensitive luminescence on Envision plate readers (Perkin Elmer). Treated assay plates are incubated with compound for 72 hours. After 72 hours, plates are developed for endpoint analysis using ATPLite. All data points are collected via automated processes, quality controlled and analyzed using Zalicus software.
# where T is treated cell count and V is untreated (vehicle) cell count (at 72 hours). I ranges from 0% (when T=V) to 100% (when T=0). […] The measure of effect in the experiment can be the inhibition of cellular response relative to the untreated level (vehicle alone). […] The inhibition ranges from 0% at the untreated level to 100% when T=0. Inhibition levels are negative for agents that actually increase levels. Other effect measures, such as an activity ratio r=T/V may be more appropriate for some assays. When activity ratios (e.g, fold increase over stimulated control) are being used, the effect can be measured using an induction 1=ln(T/V). With this definition, all effect expressions are the same as for inhibition.
# (§2) Growth Inhibition (GI) is used as a measure of cell viability. […] A GI reading of 100% represents complete growth inhibition—T72 compound-treated and T0 vehicle signals are matched. […] A GI reading of 200% represents complete death of all cells in the culture well. Compounds reaching an activity plateau of GI 200% are considered cytotoxic. GI is calculated by applying the following test and equation:
# (§3) Combination analysis data were collected in a 6×6 dose matrix. Synergy is calculated by comparing a combination's response to those of its single compound, against the drug-with-itself dose-additive reference model. Deviations from dose additivity may be assessed visually on an isobologram or numerically with a Combination Index (CI). […] Additive effect is CI=1.0. […] Antagonistic effect is CI>1.0.
# (§4) To measure combination effects in excess of Loewe additivity, a scalar measure to characterize the strength of synergistic interaction termed the Synergy Score is devised. The Synergy Score is calculated as:
# (§5) The fractional inhibition for each component agent and combination point in the matrix is calculated relative to the median of all vehicle-treated control wells. The Synergy Score equation integrates the experimentally-observed activity volume at each point in the matrix in excess of a model surface numerically derived from the activity of the component agents using the Loewe model for additivity. Additional terms in the Synergy Score equation (above) are used to normalize for various dilution factors used for individual agents and to allow for comparison of synergy scores across an entire experiment. The inclusion of positive inhibition gating or an Idata multiplier removes noise near the zero effect level, and biases results for synergistic interactions at that occur at high activity levels.
# Loewe Volume (Loewe Vol) is used to assess the overall magnitude of the combination interaction in excess of the Loewe additivity model. Loewe Volume is particularly useful when distinguishing synergistic increases in a phenotypic activity (positive Loewe Volume) versus synergistic antagonisms (negative Loewe Volume). […] This model defines additivity as a non-synergistic combination interaction where the combination dose matrix surface should be indistinguishable from either drug crossed with itself.
# SU-DHL-4-epst = system: SU-DHL-4-epst
# Method: as §1
# The measure of effect in the experiment can be the inhibition of cellular response relative to the untreated level (vehicle alone). […] The inhibition ranges from 0% at the untreated level to 100% when T=0. Inhibition levels are negative for agents that actually increase levels.
# as §2, §3, §4, §5
# Loewe Volume (Loewe Vol) is used to assess the overall magnitude of the combination interaction in excess of the Loewe additivity model. Loewe Volume is particularly useful when distinguishing synergistic increases in a phenotypic activity (positive Loewe Volume) versus synergistic antagonisms (negative Loewe Volume). […] This model defines additivity as a non-synergistic combination interaction where the combination dose matrix surface should be indistinguishable from either drug crossed with itself. The calculation for Loewe additivity is:
# Farage = conditions: Farage
# RL = conditions: combination with Dexamethasone
smiles,measurement,setting,value
"C[C@H](Nc1ncnc2[nH]cnc12)c1cc2cccc(Cl)c2c(=O)n1-c1ccccc1 [Compound 1, (S)-3-(1-((9H-purin-6-yl)amino)ethyl)-8-chloro-2-phenylisoquinolin-1(2H)-one]",CI50 growth inhibition,KARPAS-422; combination with Dexamethasone,U (U=0.7 to <1)
same,CI50 inhibition,KARPAS-422; combination with Dexamethasone,T (T=0.5 to <0.7)
same,Synergy Score growth inhibition,KARPAS-422; combination with Dexamethasone,A3 (A3=>3)
same,Synergy Score inhibition,KARPAS-422; combination with Dexamethasone,A2 (A2=1 to <3)
same,CI50 growth inhibition,KARPAS-422; combination with LEE011,S (S=0.01 to <0.5)
same,CI50 inhibition,KARPAS-422; combination with LEE011,S (S=0.01 to <0.5)
same,Synergy Score growth inhibition,KARPAS-422; combination with LEE011,A2 (A2=1 to <3)
same,Synergy Score inhibition,KARPAS-422; combination with LEE011,A2 (A2=1 to <3)
same,CI50 growth inhibition,KARPAS-422; combination with PCI-32765,S (S=0.01 to <0.5)
same,CI50 inhibition,KARPAS-422; combination with PCI-32765,S (S=0.01 to <0.5)
same,Synergy Score growth inhibition,KARPAS-422; combination with PCI-32765,A3 (A3=>3)
same,Synergy Score inhibition,KARPAS-422; combination with PCI-32765,A2 (A2=1 to <3)
same,CI50 growth inhibition,KARPAS-422; combination with PD-0332991,S (S=0.01 to <0.5)
same,CI50 inhibition,KARPAS-422; combination with PD-0332991,S (S=0.01 to <0.5)
same,Synergy Score growth inhibition,KARPAS-422; combination with PD-0332991,A2 (A2=1 to <3)
same,Synergy Score inhibition,KARPAS-422; combination with PD-0332991,A2 (A2=1 to <3)
same,CI50 growth inhibition,SU-DHL-10-epst; combination with Dexamethasone,S (S=0.01 to <0.5)
same,CI50 inhibition,SU-DHL-10-epst; combination with Dexamethasone,S (S=0.01 to <0.5)
same,Synergy Score growth inhibition,SU-DHL-10-epst; combination with Dexamethasone,A3 (A3=>3)
same,Synergy Score inhibition,SU-DHL-10-epst; combination with Dexamethasone,A3 (A3=>3)
same,CI50 growth inhibition,SU-DHL-10-epst; combination with LEE011,S (S=0.01 to <0.5)
same,CI50 inhibition,SU-DHL-10-epst; combination with LEE011,S (S=0.01 to <0.5)
same,Synergy Score growth inhibition,SU-DHL-10-epst; combination with LEE011,A3 (A3=>3)
same,Synergy Score inhibition,SU-DHL-10-epst; combination with LEE011,A3 (A3=>3)
same,CI50 growth inhibition,SU-DHL-10-epst; combination with PCI-32765,S (S=0.01 to <0.5)
same,CI50 inhibition,SU-DHL-10-epst; combination with PCI-32765,S (S=0.01 to <0.5)
same,Synergy Score growth inhibition,SU-DHL-10-epst; combination with PCI-32765,A3 (A3=>3)
same,Synergy Score inhibition,SU-DHL-10-epst; combination with PCI-32765,A3 (A3=>3)
same,CI50 growth inhibition,SU-DHL-10-epst; combination with PD-0332991,S (S=0.01 to <0.5)
same,CI50 inhibition,SU-DHL-10-epst; combination with PD-0332991,S (S=0.01 to <0.5)
same,Synergy Score growth inhibition,SU-DHL-10-epst; combination with PD-0332991,A3 (A3=>3)
same,Synergy Score inhibition,SU-DHL-10-epst; combination with PD-0332991,A3 (A3=>3)
same,CI50 growth inhibition,WSU-NHL; combination with Dexamethasone,S (S=0.01 to <0.5)
same,CI50 inhibition,WSU-NHL; combination with Dexamethasone,S (S=0.01 to <0.5)
same,Synergy Score growth inhibition,WSU-NHL; combination with Dexamethasone,A3 (A3=>3)
same,Synergy Score inhibition,WSU-NHL; combination with Dexamethasone,A3 (A3=>3)
same,CI50 growth inhibition,WSU-NHL; combination with LEE011,S (S=0.01 to <0.5)
same,CI50 inhibition,WSU-NHL; combination with LEE011,S (S=0.01 to <0.5)
same,Synergy Score growth inhibition,WSU-NHL; combination with LEE011,A2 (A2=1 to <3)
same,Synergy Score inhibition,WSU-NHL; combination with LEE011,A2 (A2=1 to <3)
same,CI50 growth inhibition,WSU-NHL; combination with PCI-32765,S (S=0.01 to <0.5)
same,CI50 inhibition,WSU-NHL; combination with PCI-32765,S (S=0.01 to <0.5)
same,Synergy Score growth inhibition,WSU-NHL; combination with PCI-32765,A3 (A3=>3)
same,Synergy Score inhibition,WSU-NHL; combination with PCI-32765,A3 (A3=>3)
same,CI50 growth inhibition,WSU-NHL; combination with PD-0332991,S (S=0.01 to <0.5)
same,CI50 inhibition,WSU-NHL; combination with PD-0332991,S (S=0.01 to <0.5)
same,CI50 growth inhibition,SU-DHL-4-epst; combination with Dexamethasone,S (S=0.01 to <0.5)
same,CI50 inhibition,SU-DHL-4-epst; combination with Dexamethasone,S (S=0.01 to <0.5)
same,Synergy Score growth inhibition,SU-DHL-4-epst; combination with Dexamethasone,A3 (A3=>3)
same,Synergy Score inhibition,SU-DHL-4-epst; combination with Dexamethasone,A3 (A3=>3)
same,CI50 growth inhibition,SU-DHL-4-epst; combination with LEE011,S (S=0.01 to <0.5)
same,CI50 inhibition,SU-DHL-4-epst; combination with LEE011,S (S=0.01 to <0.5)
same,Synergy Score growth inhibition,SU-DHL-4-epst; combination with LEE011,A2 (A2=1 to <3)
same,Synergy Score inhibition,SU-DHL-4-epst; combination with LEE011,A2 (A2=1 to <3)
same,CI50 growth inhibition,SU-DHL-4-epst; combination with PCI-32765,S (S=0.01 to <0.5)
same,CI50 inhibition,SU-DHL-4-epst; combination with PCI-32765,S (S=0.01 to <0.5)
same,Synergy Score growth inhibition,SU-DHL-4-epst; combination with PCI-32765,A3 (A3=>3)
same,Synergy Score inhibition,SU-DHL-4-epst; combination with PCI-32765,A3 (A3=>3)
same,CI50 growth inhibition,SU-DHL-4-epst; combination with PD-0332991,S (S=0.01 to <0.5)
same,CI50 inhibition,SU-DHL-4-epst; combination with PD-0332991,S (S=0.01 to <0.5)
same,Synergy Score growth inhibition,SU-DHL-4-epst; combination with PD-0332991,A3 (A3=>3)
same,Synergy Score inhibition,SU-DHL-4-epst; combination with PD-0332991,A2 (A2=1 to <3)
same,CI50 growth inhibition,Farage; combination with Dexamethasone,U (U=0.7 to <1)
same,CI50 inhibition,Farage; combination with Dexamethasone,S (S=0.01 to <0.5)
same,Synergy Score growth inhibition,Farage; combination with Dexamethasone,A3 (A3=>3)
same,Synergy Score inhibition,Farage; combination with Dexamethasone,A3 (A3=>3)
same,CI50 growth inhibition,Farage; combination with LEE011,W (W=≥1)
same,CI50 inhibition,Farage; combination with LEE011,W (W=≥1)
same,Synergy Score growth inhibition,Farage; combination with LEE011,A1 (A1=0.0001 to <1)
same,Synergy Score inhibition,Farage; combination with LEE011,A1 (A1=0.0001 to <1)
same,CI50 growth inhibition,Farage; combination with PCI-32765,S (S=0.01 to <0.5)
same,CI50 inhibition,Farage; combination with PCI-32765,S (S=0.01 to <0.5)
same,Synergy Score growth inhibition,Farage; combination with PCI-32765,A3 (A3=>3)
same,Synergy Score inhibition,Farage; combination with PCI-32765,A3 (A3=>3)
same,CI50 growth inhibition,Farage; combination with PD-0332991,T (T=0.5 to <0.7)
same,CI50 inhibition,Farage; combination with PD-0332991,S (S=0.01 to <0.5)
same,Synergy Score growth inhibition,Farage; combination with PD-0332991,A2 (A2=1 to <3)
same,Synergy Score inhibition,Farage; combination with PD-0332991,A2 (A2=1 to <3)
same,CI50 growth inhibition,RL,T (T=0.5 to <0.7)
